Experimental data reported in patent US11104690B2, “Indazole derivatives useful as inhibitors of diacylglyceride O-acyltransferase 2” (Merck Sharp & Dohme Corp., priority 2016, dated 2021).
Values joined by “and” are separate entries in the source; they are usually repeats but may differ in a detail not shown here. Equal entries are not always repeated.

Target: Human DGAT2 (Homo sapiens (Human), UniProt Q96PD7)
Assay: DGAT2 Enzymatic Activity Assay (triolein formation, LC/MS/MS)
Assay type: biochemical
Details: hDGAT2 Sf-9 membrane prep; 25 μM diolein, 10 μM oleoyl-CoA; room temperature
Description: Sf-9 insect cells were maintained in Grace's insect cell culture medium with 10% heated-inactivated fetal bovine serum, 1% Pluronic F-68 and 0.14 μg/m Kanamycine sulfate in Erlenmeyer flasks at 28° C. in a shaker incubator. After infection with untagged hDGAT2 baculovirus at multiplicity of infection (MOI) 0.1 for 48 hours, cells were harvested. Cell pellets were suspended in buffer containing 10 mM Tris-HC (pH 7.5), 1 mM EDTA (pH 8.0), 250 mM sucrose and Complete Protease Inhibitor Cocktail (Roche Diagnostics Corp., Indianapolis, Ill.), and sonicated on ice. Membrane fractions were isolated by ultracentrifugation (100,000×g pellet), resuspended in the same buffer, and frozen (−80° C.) for later use. The protein concentration was determined with the BCA Protein Assay kit (Pierce Biotechnology Inc., Rockford, Ill.). Expression of protein levels was analyzed by immunoblotting with goat polyclonal DGAT2 antibody C-15 and donkey anti-goat IgG HRP (Santa Cruz Biotechnology, Inc., Santa Cruz, Calif.) followed by detection with ECL reagent (GE Healthcare, Piscataway, N.J.).
LC/MS/MS analyses were performed using Thermal Fisher's LX4-TSQ Vantage system. This system consists of an Agilent binary high-performance liquid chromatography (HPLC) pumps and a TSQ Vantage triple quadrupole MS/MS instrument. For each sample, 2 μL samples from the top organic layer of in-plate liquid-liquid extraction were injected onto a Thermo Betabasic C4 column (2.1 mm×20 mm, 5 μm particle size). The samples were then eluted using the following conditions; mobile phase: MeOH/water with 0.1% ammonium format=92/8 (v/v), flow rate: 1 mL/min, temperature: 25 C. Data was acquired in positive mode using a heated electrospray ionization (HESI) interface. The operational parameters for the TSQ Vantage MS/MS instrument were a spray voltage of 3000 V, capillary temperature of 280° C., vaporizer temperature 400° C., shealth gas 60 arbitrary unit, Aux gas 40 arbitrary units, S-lens 113 and collision gas 0.16 Pascals. […] (SRM) chromatograms of triolein (Q1: 902.9>Q3:602.3) and internal standard ([…]) were collected for 40 sec. The peak area was integrated by Xcalibur Quan software. The ratio between the triolein generated in the reaction and spiked in internal standard was used to generate percentage inhibition and IC50 values. Compound percentage inhibition was calculated by the following formula: Inhibition %=1−[(compound response−low control)/(high control−low control)]×100%. Potent compounds were titrated and IC50 were calculated by 4 parameter sigmoidal curve fitting formula.
DGAT2 activity was determined by measuring the amount of enzymatic product triolein (1,2,3-Tri(cis-9-octadecenoyl)glycerol) using the membrane prep mentioned above. The assay was carried out in deep well 384 plates in a final volume of 40 μL at room temperature. The assay mixture contained the following: assay buffer (100 mM Tris.Cl, pH 7.0, 20 mM MgCl2, 5% ethanol), 25 μM of diolein, 10 μM of oleoyl-CoA and 10 ng/μL of DGAT2 membrane.

Human DGAT2, sequence (Q96PD7 whole entry): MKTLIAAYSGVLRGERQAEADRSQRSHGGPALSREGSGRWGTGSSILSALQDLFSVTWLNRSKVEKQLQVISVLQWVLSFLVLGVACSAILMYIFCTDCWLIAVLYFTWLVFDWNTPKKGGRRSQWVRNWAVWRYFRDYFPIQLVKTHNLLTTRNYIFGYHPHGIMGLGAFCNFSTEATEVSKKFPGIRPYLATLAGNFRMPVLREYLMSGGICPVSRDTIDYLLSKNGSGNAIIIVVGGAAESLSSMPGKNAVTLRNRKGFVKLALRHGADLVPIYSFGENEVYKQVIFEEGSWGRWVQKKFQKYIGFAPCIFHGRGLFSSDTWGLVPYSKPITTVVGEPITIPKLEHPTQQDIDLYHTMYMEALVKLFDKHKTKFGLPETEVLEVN

Structure (SMILES)	IC50
O=C(NC1CCC(F)(F)C1)c1ccc2c(-c3ccccc3Cl)nn(-c3ccc(F)cc3)c2c1 (racemic) [Example 64, 3-(2-chlorophenyl)-N-(3,3-difluorocyclopentyl)-1-(4-fluorophenyl)-1H-indazole-6-carboxamide]	132 nM
COc1cc(-c2nn(-c3ccc(F)cc3)c3cc(C(=O)NC4CCS(=O)(=O)C4)ccc23)c(Cl)cn1 (single isomer, unassigned) [Example 137-A, 3-(5-chloro-2-methoxypyridin-4-yl)-N-(1,1-dioxidotetrahydrothiophen-3-yl)-1-(4-fluorophenyl)-1H-indazole-6-carboxamide]	5.4 nM
CC1(NC(=O)c2ccc3c(-c4ccc5c(c4)OCO5)nn(-c4ccc(F)cc4)c3c2)CCS(=O)(=O)C1 (single isomer, unassigned) [Example 139-A, 3-(1,3-benzodioxol-5-yl)-1-(4-fluorophenyl)-N-(3-methyl-1,1-dioxidotetrahydrothiophen-3-yl)-1H-indazole-6-carboxamide]	229 nM and 158 nM
N#Cc1cccc(-c2nn(-c3ccc(F)cc3)c3cc(C(=O)NC4CCS(=O)(=O)C4)ccc23)c1 (centres unmarked) [Example 116, 3-(3-cyanophenyl)-N-(1,1-dioxidotetrahydrothiophen-3-yl)-1-(4-fluorophenyl)-1H-indazole-6-carboxamide]	359 nM
O=C(NC1CCNC1=O)c1ccc2c(-c3ccccc3Cl)nn(-c3ccc(F)cc3)c2c1 (racemic) [Example 52, 3-(2-chlorophenyl)-1-(4-fluorophenyl)-N-(2-oxopyrrolidin-3-yl)-1H-indazole-6-carboxamide]	413 nM
CC1(NC(=O)c2ccc3c(-c4ccccc4Cl)nn(C4CCCCO4)c3c2)CCS(=O)(=O)C1 (centres unmarked) [Example 191, 3-(2-Chlorophenyl)-N-(3-methyl-1,1-dioxidotetrahydrothiophen-3-yl)-1-(tetrahydro-2H-pyran-2-yl)-1H-indazole-6-carboxamide]	182 nM
CC1(NC(=O)c2ccc3c(-c4ccccc4Cl)nn(-c4cscn4)c3c2)CCS(=O)(=O)C1 (centres unmarked) [Example 179, 3-(2-Chlorophenyl)-N-(3-methyl-1,1-dioxidotetrahydrothiophen-3-yl)-1-(thiazol-4-yl)-1H-indazole-6-carboxamide]	285 nM
CC(C)(CO)NC(=O)c1ccc2c(-c3ccccc3Cl)nn(-c3ccc(F)cc3)c2c1 [Example 42, 3-(2-chlorophenyl)-1-(4-fluorophenyl)-N-(2-hydroxy-1,1-dimethylethyl)-1H-indazole-6-carboxamide]	26 nM
O=C(NC1CCS(=O)(=O)C1)c1ccc2c(-c3ccccc3Cl)nn(-c3ccc(F)cc3)c2c1 (single isomer, unassigned) [Example 2-B, 3-(2-chlorophenyl)-N-(1,1-dioxidotetrahydrothiophen-3-yl)-1-(4-fluorophenyl)-1H-indazole-6-carboxamide]	303 nM
CC(CO)(CO)NC(=O)c1ccc2c(-c3ccccc3Cl)nn(-c3ccc(F)cc3)c2c1 [Example 46, 3-(2-chlorophenyl)-1-(4-fluorophenyl)-N-[2-hydroxy-1-(hydroxymethyl)-1-methylethyl]-1H-indazole-6-carboxamide]	49 nM
O=C(NC1(CO)CCOCC1)c1ccc2c(-c3ccccc3Cl)nn(-c3ccc(F)cc3)c2c1 [Example 47, 3-(2-chlorophenyl)-1-(4-fluorophenyl)-N-[4-(hydroxymethyl)tetrahydro-2H-pyran-4-yl]-1H-indazole-6-carboxamide]	47 nM

More lines, in order of falling IC50, values ahead:

IC50	Structure (SMILES)
855 nM	CN(C)C(=O)c1cccc(-c2nn(-c3ccc(F)cc3)c3cc(C(=O)NC4(C)CCS(=O)(=O)C4)ccc23)c1 (racemic) [Example 148, 3-[3-(dimethylcarbamoyl)phenyl]-1-(4-fluorophenyl)-N-(3-methyl-1,1-dioxidotetrahydrothiophen-3-yl)-1H-indazole-6-carboxamide]
832 nM	C[C@@H](NC(=O)c1ccc2c(-c3ccccc3Cl)nn(-c3ccc(F)cc3)c2c1)[C@@H](O)c1ccccc1 [Example 106, 3-(2-chlorophenyl)-1-(4-fluorophenyl)-N-[(1R,2S)-2-hydroxy-1-methyl-2-phenylethyl]-1H-indazole-6-carboxamide]
772 nM	O=C(N[C@@H]1CCC[C@H]1O)c1ccc2c(-c3ccccc3Cl)nn(-c3ccc(F)cc3)c2c1 [Example 94, 3-(2-chlorophenyl)-1-(4-fluorophenyl)-N-[(1R,2R)-2-hydroxycyclopentyl]-1H-indazole-6-carboxamide]
607 nM	CC(C)(O)C1(NC(=O)c2ccc3c(-c4ccccc4Cl)nn(-c4ccc(F)cc4)c3c2)CCOCC1 [Example 70, 3-(2-chlorophenyl)-1-(4-fluorophenyl)-N-[4-(1-hydroxy-1-methylethyl)tetrahydro-2H-pyran-4-yl]-1H-indazole-6-carboxamide]
519 nM	Cc1nc(C(C)NC(=O)c2ccc3c(-c4ccccc4Cl)nn(-c4ccc(F)cc4)c3c2)no1 (racemic) [Example 41, 3-(2-chlorophenyl)-1-(4-fluorophenyl)-N-[1-(5-methyl-1,2,4-oxadiazol-3-yl)ethyl]-1H-indazole-6-carboxamide]
505 nM	O=C(NC1CCOCC1)c1ccc2c(-c3ccccc3Cl)nn(-c3ccc(F)cc3)c2c1 [Example 86, 3-(2-chlorophenyl)-1-(4-fluorophenyl)-N-(tetrahydro-2H-pyran-4-yl)-1H-indazole-6-carboxamide]
212 nM	O=C(NC1CCS(=O)(=O)C1)c1ccc2c(-c3cccnc3)nn(-c3ccc(F)cc3)c2c1 (single isomer, unassigned) [Example 134-A, N-(1,1-dioxidotetrahydrothiophen-3-yl)-1-(4-fluorophenyl)-3-pyridin-3-yl-1H-indazole-6-carboxamide]
164 nM	CC(NC(=O)c1ccc2c(-c3ccccc3Cl)nn(-c3ccc(F)cc3)c2c1)c1cn(C(=O)OC(C)(C)C)cn1 (racemic) [Example 7, tert-butyl 4-[1-({[3-(2-chlorophenyl)-1-(4-fluorophenyl)-1H-indazol-6-yl]carbonyl}amino)ethyl]-1H-imidazole-1-carboxylate]
139 nM	N#CC1(NC(=O)c2ccc3c(-c4ccccc4Cl)nn(-c4ccc(F)cc4)c3c2)CC1 [Example 105, 3-(2-chlorophenyl)-N-(1-cyanocyclopropyl)-1-(4-fluorophenyl)-1H-indazole-6-carboxamide]
136 nM	CC(C)(C)OC(=O)N1CC[C@@H](NC(=O)c2ccc3c(-c4ccccc4Cl)nn(-c4ccc(F)cc4)c3c2)C1 [Example 101, tert-butyl (3R)-3-({[3-(2-chlorophenyl)-1-(4-fluorophenyl)-1H-indazol-6-yl]carbonyl}amino)pyrrolidine-1-carboxylate]
38 nM	C[C@@H](NC(=O)c1ccc2c(-c3ccccc3Cl)nn(-c3ccc(F)cc3)c2c1)c1ccc(C(F)(F)F)nc1 [Example 11, 3-(2-chlorophenyl)-1-(4-fluorophenyl)-N-{(1R)-1-[6-(trifluoromethyl)pyridin-3-yl]ethyl}-1H-indazole-6-carboxamide]
36 nM	O=C(N[C@H](CO)c1ccccc1)c1ccc2c(-c3ccccc3Cl)nn(-c3ccc(F)cc3)c2c1 [Example 82, 3-(2-chlorophenyl)-1-(4-fluorophenyl)-N-[(1S)-2-hydroxy-1-phenylethyl]-1H-indazole-6-carboxamide]
25 nM	O=C(NC1CCS(=O)(=O)C1)c1ccc2c(-c3c(F)cccc3F)nn(-c3ccc(F)cc3)c2c1 (single isomer, unassigned) [Example 132-A, 3-(2,6-difluorophenyl)-N-(1,1-dioxidotetrahydro-thiophen-3-yl)-1-(4-fluorophenyl)-1H-indazole-6-carboxamide]
22 nM	C[C@@H]1CC[C@@H](O)[C@H]1NC(=O)c1ccc2c(-c3ccccc3Cl)nn(-c3ccc(F)cc3)c2c1 [Example 72, 3-(2-chlorophenyl)-1-(4-fluorophenyl)-N-[(1S,2R,5R)-2-hydroxy-5-methylcyclopentyl]-1H-indazole-6-carboxamide]
5.5 nM	N#Cc1ccc(Cl)c(-c2nn(-c3ccc(F)cc3)c3cc(C(=O)NC4(CO)CCC4)ccc23)c1 [Example 118, 3-(2-chloro-5-cyanophenyl)-1-(4-fluorophenyl)-N-[1-(hydroxymethyl)cyclobutyl]-1H-indazole-6-carboxamide]
